US20230295133A1, “PROCESS FOR PREPARING A COMPOUND USEFUL TO TREAT MYCOSES” (PULMOCIDE LIMITED, priority 2014, published 2023)
≈ marks a conversion by molar mass, not a printed value. Like-named read-outs stand apart in the source and are kept apart here.

Tests used:
[1] = test system: Aspergillus fumigatus NCPF7099; assay: Broth microdilution assay (modified EUCAST); type: cell-based; settings: Aspergillus fumigatus, NCPF7099, n = 3, read-out: MIC75 against Aspergillus fumigatus isolate NCPF7099
How it was run: (§1)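 Spores from 3-day Sabouraud cultures (working suspension 2 × 10^5 spores/mL) were added to an equal volume of RPMI-1640 (2 mM L-glutamine, 0.5% BSA, 2% glucose, 0.165 M MOPS, pH 7) containing compound, in quadruplicate. After 48 hr at 35 °C, OD530 gave percent inhibition. MIC50, MIC75 and MIC90 came from concentration-response curves.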

[2] = test system: Aspergillus fumigatus L98H (TR34/L98H); assay: Broth microdilution assay (modified EUCAST); type: cell-based; settings: Aspergillus fumigatus, read-out: MIC75 against Aspergillus fumigatus isolate L98H
How it was run: as §1

[3] = test system: Aspergillus fumigatus NCPF2010; assay: Broth microdilution assay (modified EUCAST); type: cell-based; settings: Aspergillus fumigatus
How it was run: as §1

[4] = Cell viability: resazurin assay; type: cell-based, human; settings: human, BEAS2B cells; n = 3-5
How it was run: (§2)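 BEAS2B cells in RPMI-LHC8, exposed to compound for 1 day at 37 °C (0.5% DMSO final), then resazurin added for a further 4 h. Fluorescence (ex 545/em 590 nm) gives % viability loss vs 0.5% DMSO vehicle; CC50 from concentration-response curve.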

[5] = test system: Aspergillus fumigatus (NCPF2010); assay: Resazurin-microtitre assay of planktonic fungus growth; type: cell-based; settings: Aspergillus fumigatus
Experimental: This assay was conducted using a modified, published method (Monteiro et al., 2012). Spores of aspergillus fumigatus (NCPF2010, Public Health England, Wiltshire) were cultured in Sabouraud dextrose agar for 3 days. A stock spore suspension was prepared from a Sabouraud dextrose agar culture by washing with PBS-tween (10 mL; PBS containing 0.05% Tween-20, 100 U/mL Penicillin and 100 U/mL Streptomycin). The spore count was assessed using a Neubauer haemocytometer and, using PBS adjusted to 10^6 spores/mL. A working suspension of spores (10^4 spores/mL) was prepared in filter sterilised MOPS RPMI-1640 (50 mL; RPMI-1640 containing 2 mM L-glutamine, 2% glucose and 0.165 M MOPS, buffered to pH 7 with NaOH). Resazurin sodium salt (100 µL of 1% solution; Sigma-Aldrich, Dorset, UK) was added to the spore suspension and mixed well. The spore suspension-resazurin mixture (100 µL/well) was added to 384-well plates (Catalogue number 353962, BD Falcon, Oxford, UK).
Simultaneously, test compounds (0.5 µL DMSO solution) were added to 100 µL of the spore-resazurin mixture in quadruplicate to provide a final DMSO solution of 0.5% using an Integra VIAFLO 96 (Intergra, Zizers, Switzerland). For non-spore control wells, MOPS-RPMI-resazurin solution (100 µL) was added instead of the spore-resazurin mixture. The plate was covered with a Breathe Easier membrane (Catalogue No Z763624, Sigma-Aldrich, Dorset, UK), and incubated (35° C., 5% CO2) until fluorescence in the inoculated wells was double that of the control wells (around 24 hr). The fluorescence of each well (545 nm (excitation) / 590 nm (emission), gain 800, focal height 5.5 mm) was determined using a multi-scanner (Clariostar: BMG, Buckinghamshire, UK). The percentage inhibition for each well was calculated and the MIC50, MIC75 and MIC90 values were calculated from the concentration-response curve generated for each test compound.

[6] = test system: Aspergillus fumigatus NCPF7100; assay: Broth microdilution assay (modified EUCAST); type: cell-based; settings: Aspergillus fumigatus, NCPF7100, read-out: MIC75 against Aspergillus fumigatus isolate NCPF7100
[7] = test system: aspergillus fumigatus (ATCC 13073 [strain: NIH 5233]); assay: In vivo anti-fungal activity, prophylactic and therapeutic treatment of infected immunocompromised neutropenic mice; parameters: species or system A/J mice; settings: prophylactic treatment (days 0, 1, 2 and 3); 0.4 mg/mL
[8] = test system: aspergillus fumigatus infection of BEAS2B cells; assay: Aspergillus fumigatus infection of bronchial epithelial cells (GM in supernatant); type: cell-based; settings: Aspergillus fumigatus, read-out: MIC50 Infection of BEAS2B cells
How it was run: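 BEAS2B cells in 10% FBS RPMI-1640 pre-treated with compound (0.5% DMSO final) for 1 hr at 35 °C, then infected with A. fumigatus conidia (0.5×10^5/ml suspension) for 24 hr at 35 °C. Galactomannan in 1:20-diluted supernatant measured by Platelia GM-EIA; IC50 from percent-inhibition concentration-response curves.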

[9] = test system: Aspergillus flavus ATCC204304; assay: Fungus panel screening, CLSI broth microdilution; type: cell-based
Experimental: (§3) Fungus panel screening was conducted by Eurofins Panlabs Inc. The MIC and MIC50 values of the test articles were determined following the guidelines of the Clinical and Laboratory Standards Institute, broth microdilution methods for yeast (CLSI M27-A2), (CLSI, 2002) and for filamentous fungi (CLSI M38-A), (CLSI, 2008).

[10] = test system: Cryptococcus neoformans ATCC24067; assay: Fungus panel screening, CLSI broth microdilution; type: cell-based
Experimental: as §3

[11] = test system: Chaectomium globosum ATCC44699; assay: Fungus panel screening, CLSI broth microdilution; type: cell-based
Experimental: as §3

BEAS2B cells = assay: Cell viability: resazurin assay; type: cell-based, human; settings: n = 3-5
How it was run: as §2

[12] = 50% inhibition by visual inspection (CLSI)
[13] = 100% inhibition by visual inspection (CLSI), read-out: MIC100

Work on `Cc1cc(N2CCN(c3ccc(C(=O)Nc4ccc(F)cc4F)cc3)CC2)ccc1OC[C@@H]1CO[C@@](Cn2cncn2)(c2ccc(F)cc2F)C1` [Example 2, 4-(4-(4-(((3R,5R)-5-((1H-1,2,4-Triazol-1-yl)Methyl)-5-(2,4-Difluorophenyl) Tetrahydrofuran-3-yl)Methoxy)-3-Methylphenyl)Piperazin-1-yl)-N-(2,4-Difluorophenyl) Benzamide] yielded an MIC [1] of 0.0283 µM (≈ 19.8 ng/mL), an MIC [2] of 0.0816 µM (≈ 57.2 ng/mL) and an MIC ([3]; NCPF2010, read-out: MIC75 against Aspergillus fumigatus isolate NCPF2010) of 0.007 µM (≈ 4.91 ng/mL). The CC50 at 1 day [4] was > 14.3 µM, the MIC50 ([5]; NCPF2010, read-out: MIC50 Planktonic fungal growth) was 0.00074 µM (≈ 0.519 ng/mL) and the MIC ([5]; NCPF2010, read-out: MIC75 Planktonic fungal growth) was 0.00306 µM (≈ 2.14 ng/mL). For the same molecule, the MIC [6] was 0.0213 µM (≈ 14.9 ng/mL), the “% Inhibition versus Infected Controls, GM in BALF” value [7] was 43% and the “% Inhibition versus Infected Controls, GM in serum” value [7] was 27%. The “% Inhibition versus Infected Controls, Lung Fungal Load” value [7] was 25% and the MIC50 [8] was 0.00142 µM (≈ 0.995 ng/mL).
`C[C@@H](c1ncncc1F)[C@](O)(Cn1cncn1)c1ccc(F)cc1F` [Voriconazole] gave an MIC50 [9, 12] of 1 µg/mL (≈ 2.86 µM), an MIC [9, 13] of 2 µg/mL (≈ 5.73 µM) and an MIC50 [10, 12] of 0.016 µg/mL (≈ 0.0458 µM). For the same molecule, the MIC [10, 13] was 1 µg/mL (≈ 2.86 µM), the MIC50 [11, 12] was 0.5 µg/mL (≈ 1.43 µM) and the MIC [11, 13] was 1 µg/mL (≈ 2.86 µM). For the same molecule, the MIC ([3]; NCPF2010, broth microdilution assay, n = 3, read-out: MIC75 against Aspergillus fumigatus isolate NCPF2010) was 0.496 µM (≈ 173 ng/mL) and the CC50 (BEAS2B cells) was > 28.6 µM.
